# Measurements published in ChEMBL document CHEMBL3045720, “Synthesis and antifungal activity of 2-chloromethyl-1H-benzimidazole derivatives against phytopathogenic fungi in vitro” (J Agric Food Chem, 2013).
# Legend:
# Cytospora [1] = assay: Antifungal activity against Cytospora sp. assessed as inhibition of mycelium growth at 100 ug/ml after 3 to 4 days; conditions: 72 to 96 h, read-out: GI
# Fusarium solani [2] = assay: Antifungal activity against Fusarium solani assessed as inhibition of mycelium growth after 1 week; format: functional, organism-based
# Alternaria solani [3] = assay: Antifungal activity against Alternaria solani assessed as inhibition of mycelium growth at 100 ug/ml […]; format: functional; conditions: 168 h, read-out: GI
# [4] = test system: Colletotrichum gloeosporioides; assay: Antifungal activity against Colletotrichum gloeosporioides assessed as inhibition of mycelium growth at 100 ug/ml after 3 to 4 days; conditions: 72 to 96 h, read-out: GI
# Botrytis cinerea [5] = assay: Antifungal activity against Botryotinia fuckeliana assessed as inhibition of mycelium growth at 100 ug/ml […]; format: functional; conditions: 168 h, read-out: GI
# Alternaria solani [6] = assay: Antifungal activity against Alternaria solani assessed as inhibition of mycelium growth after 1 week; format: functional, organism-based
# [7] = test system: Colletotrichum gloeosporioides; assay: Antifungal activity against Colletotrichum gloeosporioides assessed as inhibition of mycelium growth […]; format: functional, organism-based
# Cytospora [8] = assay: Antifungal activity against Cytospora sp. assessed as […]; format: functional, organism-based
# Fusarium solani [9] = assay: Antifungal activity against Fusarium solani assessed as inhibition of mycelium growth at 100 ug/ml […]; format: functional; conditions: 168 h, read-out: GI
# Botrytis cinerea [10] = assay: Antifungal activity against Botryotinia fuckeliana assessed as inhibition of mycelium growth after 1 week; format: functional, organism-based; conditions: 168 h
# [11] = Fusarium solani, 168 h, read-out: IC50
# [12] = Alternaria solani, 168 h, read-out: IC50
# [13] = Colletotrichum gloeosporioides, read-out: IC50
# [14] = Cytospora, 168 h, read-out: IC50
SMILES,inhibition of growth at 100 µg/mL (Cytospora [1]) [%],IC50 (Fusarium solani [2]; [11]) [µg/mL],inhibition of growth at 100 µg/mL (Alternaria solani [3]) [%],inhibition of growth at 100 µg/mL [4] [%],inhibition of growth at 100 µg/mL (Botrytis cinerea [5]) [%],IC50 (Alternaria solani [6]; [12]) [µg/mL],"IC50 [7, 13] [µg/mL]",IC50 (Cytospora [8]; [14]) [µg/mL],inhibition of growth at 100 µg/mL (Fusarium solani [9]) [%],IC50 (Botrytis cinerea [10]) [µg/mL],IC50 (Fusarium solani [2]),IC50 (Cytospora [8]),IC50 (Alternaria solani [6]),IC50 [7]
Cn1c(COc2ccccc2)nc2ccccc21,84.2,18.6,75.4,87.3,29.8,27.6,20.8,50,84.5,> 150,–,–,–,–
Cn1c(COc2ccc(F)cc2)nc2ccccc21,80.6,31.5,85.2,62.7,47.4,69.3,> 100,58.2,83.9,> 120,–,–,–,–
ClCc1nc2ccccc2[nH]1,< 5,–,25.3,67.6,53.2,> 100,83.1,–,6.59,> 100,Not Active,Not Active,–,–
Cn1c(CCl)nc2ccccc21,45.4,> 150,51.6,69.6,91.5,> 100,80.3,> 100,28.8,68.1,–,–,–,–
CNc1ccccc1N(C)C(=O)CCl,< 5,–,25.3,41.3,64.4,–,–,–,30.1,–,–,–,–,–
CC(=O)c1cccc(OCc2nc3ccccc3n2C)c1,55.5,82.4,64.5,41.3,82.5,> 100,> 120,> 100,78.5,68.9,–,–,–,–
CC(=O)c1ccccc1OCc1nc2ccccc2n1C,64.5,> 100,65.5,71.4,64.9,> 100,70.6,> 100,64.7,> 100,–,–,–,–
CC(=O)c1ccc(OCc2nc3ccccc3n2C)cc1,87.1,39,55.7,38.1,65.4,> 100,> 120,50.7,81.8,89.6,–,–,–,–
CCCOC(=O)c1ccc(OCc2nc3ccccc3n2C)cc1,48.3,–,63.6,20.6,< 5,–,–,–,42.2,–,–,–,–,–
Cn1c(COc2ccc(Cl)cc2)nc2ccccc21,76.3,> 100,77.8,90.5,83,62.5,41.3,24.9,64.1,26.8,–,–,–,–
Cn1c(COc2ccc(C=O)cc2)nc2ccccc21,21,–,27.8,49.2,< 5,–,–,–,12,–,–,–,–,–
C=CCc1ccc(OCc2nc3ccccc3n2C)c(OC)c1,49.7,–,40.1,38.1,47.4,–,–,–,60.4,–,–,–,–,–
Cn1c(COc2cccc3ccccc23)nc2ccccc21,62.6,–,50.7,22.2,< 5,–,–,–,53,–,–,–,–,–
CCOC(=O)c1ccc(OCc2nc3ccccc3n2C)cc1,79.9,> 150,39.1,71.7,35.9,> 150,49.7,52.6,21.4,> 150,–,–,–,–
COC(=O)c1ccc(OCc2nc3ccccc3n2C)cc1,31,–,64.6,< 5,6.43,–,–,–,48.2,–,–,–,–,–
Cn1c(COc2ccc3c(c2)OCO3)nc2ccccc21,80.6,73,64,81,88.3,> 100,55.7,54.3,74.5,63.7,–,–,–,–
CC(=O)n1c(CCl)nc2ccccc21,8.05,–,11.3,43.9,57.3,–,> 150,–,21.4,50.9,Not Active,Not Active,Not Active,–
CS(=O)(=O)n1c(CCl)nc2ccccc21,100,40.1,68,100,79.9,> 100,11.4,31,79.2,57.7,–,–,–,–
O=S(=O)(c1ccc(Cl)cc1)n1c(CCl)nc2ccccc21,27.4,–,31.9,74.6,57.3,–,22.3,–,28.1,> 100,Not Active,Not Active,Not Active,–
Cn1c(CCl)nc2cc([N+](=O)[O-])ccc21,100,23.3,100,100,48.7,27.9,28,22.5,100,> 100,–,–,–,–
Cn1c(COc2ccc(Cl)cc2)nc2cc([N+](=O)[O-])ccc21,10.2,–,30.2,6.35,100,–,–,–,< 5,13.4,Not Active,Not Active,Not Active,Not Active
Cn1c(COc2ccc3c(c2)OCO3)nc2cc([N+](=O)[O-])ccc21,12.4,–,7.22,< 5,91.2,–,–,–,34.8,69.1,Not Active,Not Active,Not Active,Not Active
Cc1cc(O)no1 [HYMEXAZOL],38.9,38.5,80.3,49.2,100,14,> 100,> 100,72.5,8.92,–,–,–,–
